Measured values as given in ChEMBL document CHEMBL5150062, “Computational design, synthesis and biological evaluation of PDE5 inhibitors based on N2,N4-diaminoquinazoline and N2,N6-diaminopurine scaffolds” (Bioorg Med Chem, 2022).
Converted amounts (≈) assume the structure as drawn.

What was measured:
[1] = biological target: T1, cGMP-specific 3',5'-cyclic phosphodiesterase (Homo sapiens, UniProt O76074); assay: Inhibition of human PDE5 using [3H]cGMP as substrate at 1 uM incubated for 10 mins by liquid scintillation counter analysis relative to control
[2] = biological target: T1, cGMP-specific 3',5'-cyclic phosphodiesterase; assay: Inhibition of human PDE5 using [3H]cGMP as substrate incubated for 10 mins by liquid scintillation counter analysis
[3] = organism: Bos taurus; assay: Inhibition of bovine heart PDE1 using [3H]cGMP as substrate at 10 uM incubated for 10 mins by liquid scintillation counter analysis relative to control
[4] = Aqueous solubility of the compound in pH 7.4 PBS measured after 7 hrs by HPLC-UV analysis; format: physicochemical; conditions: for solubility at 7 h: PBS, pH 7.4
[5] = 1-Octanol/PBS partition coefficient, logD of the compound at pH 7.4 incubated for 7 hrs by shake flask technique based HPLC-UV analysis; format: physicochemical
[6] = Inhibition of bovine heart PDE1 using [3H]cGMP as substrate incubated for 10 mins by liquid scintillation counter analysis; parameters: species or system Bos taurus
[7] = Selectivity index, ratio of IC50 for inhibition of bovine heart PDE1to IC50 for inhibition of human PDE5

| SMILES | inhibition [1] | IC50 [2] | also measured |
| --- | --- | --- | --- |
| COc1cc2nc(Nc3cccc(S(=O)(=O)N4CCN(C)CC4)c3)nc(NC3CCN(C(C)C)CC3)c2cc1OC | 18.5% | – | – |
| Cn1cnc2c(NCc3ccccc3)nc(Nc3ccc(S(N)(=O)=O)cc3)nc21 | 96.5% | 23 µM | – |
| CC(C)CNc1nc(Nc2cccc(S(=O)(=O)N3CCN(C)CC3)c2)nc2c1ncn2C | 91.8% | 33.3 µM | – |
| CC(C)CNc1nc(Nc2ccc(S(=O)(=O)N3CCN(C)CC3)cc2)nc2c1ncn2C | 96% | 28.5 µM | – |
| Cn1cnc2c(NCc3ccccc3)nc(Nc3cccc(S(N)(=O)=O)c3)nc21 | 86.1% | 4.46 µM | – |
| CN(C)CCNc1nc(Nc2cccc(S(N)(=O)=O)c2)nc2ccccc12 | 72.2% | 9.39 µM | – |
| COc1cc2nc(Nc3cccc(S(N)(=O)=O)c3)nc(NCC(C)C)c2cc1OC | 94.9% | 5.23 µM | – |
| CN1CCN(S(=O)(=O)c2ccc(Nc3nc(NCc4ccccc4)c4ncn(C)c4n3)cc2)CC1 | 97.3% | 38.4 µM | – |
| CCCNc1nc(Nc2ccc(S(=O)(=O)N3CCN(C)CC3)cc2)nc2c1ncn2C | 93.6% | 18.9 µM | – |
| CC(C)N1CCC(Nc2nc(Nc3cccc(S(N)(=O)=O)c3)nc3[nH]cnc23)CC1 | 32.7% | – | – |
| CN1CCN(S(=O)(=O)c2cccc(Nc3nc(NCc4ccccc4)c4ncn(C)c4n3)c2)CC1 | 69% | – | – |
| COc1cc2nc(Nc3cccc(S(N)(=O)=O)c3)nc(NC3CCN(C(C)C)CC3)c2cc1OC | 79.3% | 3.41 µM | – |
| CN(C)CCNc1nc(Nc2cccc(S(=O)(=O)N3CCN(C)CC3)c2)nc2ccccc12 | 75.3% | 5.28 µM | – |
| COc1cc2nc(Nc3ccc(S(N)(=O)=O)cc3)nc(NCC(C)C)c2cc1OC | 94.6% | 3.97 µM | – |
| CCCNc1nc(Nc2cccc(S(=O)(=O)N3CCN(C)CC3)c2)nc2c1ncn2C | 93.6% | 43.2 µM | – |
| CCCc1nn(C)c2c(=O)[nH]c(-c3cc(S(=O)(=O)N4CCN(C)CC4)ccc3OCC)nc12 | – | – | solubility ([4]; buffer, pH 7.4, 7 h): 180 µg/mL (≈ 379 µM); logD at 7 h [5]: 2.69 |

Continued, in another order:

| inhibition [1] | IC50 [2] | SMILES | also measured |
| --- | --- | --- | --- |
| 91.6% | 1.44 µM | CCCNc1nc(Nc2cccc(S(N)(=O)=O)c2)nc2cc(OC)c(OC)cc12 | – |
| 96.3% | 1.03 µM | CC(C)N1CCC(Nc2nc(Nc3cccc(S(N)(=O)=O)c3)nc3ccccc23)CC1 | – |
| 96.5% | 0.49 µM | CN1CCN(S(=O)(=O)c2ccc(Nc3nc(NCc4ccccc4)c4ccccc4n3)cc2)CC1 | – |
| 99% | 0.36 µM | CC(C)CNc1nc(Nc2ccc(S(=O)(=O)N3CCN(C)CC3)cc2)nc2ccccc12 | inhibition [3]: 44.8%; solubility at 7 h [4]: 3 µg/mL (≈ 6.6 µM); logD at 7 h [5]: 3.68 |
| 97.3% | 0.43 µM | CC(C)CNc1nc(Nc2cccc(S(=O)(=O)N3CCN(C)CC3)c2)nc2ccccc12 | inhibition [3]: 67.2%; solubility at 7 h [4]: 0.6 µg/mL (≈ 1.32 µM); logD at 7 h [5]: 3.55 |
| 93.4% | 0.22 µM | NS(=O)(=O)c1cccc(Nc2nc(NC3CCN(Cc4ccccc4)CC3)c3ccccc3n2)c1 | inhibition [3]: 61.7%; solubility at 7 h [4]: 4.2 µg/mL (≈ 8.6 µM); logD at 7 h [5]: 3.37 |
| 94.3% | 0.29 µM | NS(=O)(=O)c1cccc(Nc2nc(NC3CCN(Cc4ccccc4)CC3)c3nc[nH]c3n2)c1 | inhibition [3]: 31.2%; solubility at 7 h [4]: 150 µg/mL (≈ 313 µM); logD at 7 h [5]: 2.16 |
| 93.6% | 0.15 µM | CC(C)N1CCC(Nc2nc(Nc3cccc(S(=O)(=O)N4CCN(C)CC4)c3)nc3ccccc23)CC1 | inhibition [3]: 28.2%; solubility at 7 h [4]: 1770 µg/mL (≈ 3380 µM); logD at 7 h [5]: 2.15 |
| 99.3% | 2.02 µM | CN1CCN(S(=O)(=O)c2cccc(Nc3nc(NCc4ccccc4)c4nc[nH]c4n3)c2)CC1 | – |
| 96.9% | 0.6 µM | CCCNc1nc(Nc2cccc(S(=O)(=O)N3CCN(C)CC3)c2)nc2ccccc12 | – |
| 101% | 0.1 µM | NS(=O)(=O)c1cccc(Nc2nc(NCc3ccccc3)c3ccccc3n2)c1 | inhibition [3]: 73.9%; IC50 [6]: 11.8 µM; solubility at 7 h [4]: 2.1 µg/mL (≈ 5.18 µM); logD at 7 h [5]: 3.87; Ratio IC50 [7]: 100 |
| 93.9% | 0.52 µM | CN1CCN(S(=O)(=O)c2cccc(Nc3nc(NCc4cccs4)c4ccccc4n3)c2)CC1 | – |
| 98.3% | 0.5 µM | CN1CCN(S(=O)(=O)c2cccc(Nc3nc(NCc4ccccc4)c4ccccc4n3)c2)CC1 | – |
| 93.7% | 1.64 µM | COc1cc2nc(Nc3cccc(S(N)(=O)=O)c3)nc(NC3CCN(Cc4ccccc4)CC3)c2cc1OC | – |
| 95.6% | 0.41 µM | CCCNc1nc(Nc2ccc(S(=O)(=O)N3CCN(C)CC3)cc2)nc2ccccc12 | inhibition [3]: 46.8%; solubility at 7 h [4]: 0.1 µg/mL (≈ 0.227 µM); logD at 7 h [5]: 3.92 |
